Here are results for three compounds from PMC7367369, “A small library of chalcones induce liver cancer cell death through Akt phosphorylation inhibition” (Scientific Reports, 2020).

Structures are written as SMILES. A value given as a limit tells only on which side of the number the result lay.

Type in all cases: cell-based, human
Experiment [1] concerns Hep3B. Kind of experiment: NCI-60 sulforhodamine B (SRB) cytotoxicity assay, Hep3B. The note with it: Homo sapiens, Hep3B; SRB, 72 h, 2.5–40 μM, triplicate; read-out: IC50 Hep3B. On the procedure:
(§1) The bioactivities of the synthesized chalcones were assessed on human liver cancer cell lines and on DPSCs with NCI-SRB assay in vitro. DPSCs used to asses the bioactivity of chalcones on untransformed control cells with the potential of hepatic lineage. […] We also included 5-Fluorouracil which is used in clinics for gastrointestinal cancers and Sorafenib. All results were normalized to DMSO negative control measurements. The experiment was performed in triplicate.
(§2) Well differentiated human primary liver cancer cell lines Huh7, HepG2 and Hep3B, and poorly differentiated Mahlavu, FOCUS and SNU475 HCC cells were cultured in Dulbecco’s Modified Eagle’s Standard (DMEM) medium supplemented with 10% Fetal Bovine Serum (FBS), 100 units/mL penicillin and 100 µg/mL streptomycin (Gibco, Invitrogen, Carlsbad, CA, USA). 0.1 mM nonessential amino acids (NEAA) which are specific to HCC cell lines also added to culture media. Cells were cultured in a 5% CO2 incubator at 37^∘C
(§3) Primary liver cancer cells Huh7, HepG2, Hep3B, Mahlavu, FOCUS, Snu475 along with hepatic progenitor Dental pulp stem cells were seeded into 96-well plates (1,000–3,000 HCC cell/well and 10,000 cells DPSC/well ) for 24 h. The cells were then treated with increasing concentrations of the chalcones ( 2.5-40μM ). DMSO (AppliChem Biochemica, Darmstadt, Germany) was used as negative control. The growth has stopped at the end of 72 h by fixing cold with 10% (v/v) trichloroacetic acid (Merck, Schuchardt, Germany). Cells were then stained with 0.4% (m/v) of sulforhodamine (Sigma-Aldrich, St. Louis, USA) in 1% acetic acid solution. […] All experiments were done in triplicate.
For orientation: The SRB assay estimates cell density from bound dye.

Experiment [2] concerns pAkt (Ser473) in Mahlavu cells. The experiment can be described thus: Western blot, phosphorylated Akt levels. The note with it: IC50 concentrations (Fig. 2), 24 h. The method, then: (§4) Figure 4 Proteins targeted by the compounds. Human liver cancer cells (Mahlavu) were treated with the IC50 concentrations of the selected compounds or DMSO control for 24 h. […] (B–D) Quantification of the results using ImageJ software. (E) Schematic representation of the molecular mechanism of action of the compounds. Blocked signaling is crossed.
In order to investigate the significant bioactivity of the chalcones 1, 9 and 11 on human liver cancer cell line Mahlavu which has an hyperactive PI3K/Akt pathway due to PTEN-deficiency[13], we analyzed the effect of the chalcones on the active phosphorylated Akt levels in this cell line.
(§5) Poorly differentiated liver cancer cell line Mahlavu cells were cultured in 100 mm culture dish for 24 h. […] Anti-PARP antibody (Cell Signaling, 9532), pAkt (Ser473) antibody (Cell Signaling, 9271), Akt antibody (Cell Signaling, 9272), pNFkB-p65 (Ser468) antibody (Snat Cruz, sc101750), p21 antibody (Millipore, 05345), pRb (Ser807/811) antibody (Cell Signaling, 9308), Rb antibody (Santa Cruz, sc102), actin antibody (Sigma, A5441) and calnexin antibody (Sigma, C4731) were used as primary antibodies. Anti-rabbit (6154) and anti-mouse (0168) secondary antibodies were used. ImageJ tool ([42]) used for protein band intensity comparison. Original Full length blots are given as Supplementary Information.

Experiment [3] deals with Mahlavu. Kind of experiment: NCI-60 sulforhodamine B (SRB) cytotoxicity assay, Mahlavu. The note with it: Homo sapiens, Mahlavu; SRB, 72 h, 2.5–40 μM, triplicate; read-out: IC50 Mahlavu. The method, then:
as §1, §2, §3

The test system of experiment [4] is Mahlavu and Huh7 cells. Kind of experiment: Cell cycle analysis (propidium iodide). The note with it: Mahlavu and Huh7, IC50 concentrations, 72 h. On the procedure:
(§6) Human liver cancer cells Mahlavu and Huh7 were treated with the compounds according to the IC50 values obtained from RT-CES experiments or DMSO controls for 72hr. […] We further assessed the effects of the selected chalcones 1, 9, and 11 on the cell cycle progression analysis of liver cancer cells. Human liver cancer cells Mahlavu and Huh7 were treated with the compounds according to the IC50 values obtained from RT-CES for 72 h. Then the DNA in the treated cells were stained with propidium iodide and analyzed with fluorescent-activated cell sorter. […] In order to confirm the induction of apoptosis in human liver cancer cells treated with the chalcones, cleavage of PARP protein (marker of apoptosis) was investigated.
(§7) Figure 3 Cell death induced by the chalcones. (A) Nuclear staining of the liver cancer cells treated with the chalcones. Human liver cancer cells (Huh7 and Mahlavu) were treated with the IC50 concentrations of the chalcones 1, 9, 11. After 72 h of incubation with the compounds or DMSO control, Hoechst (33258) staining was performed. Images were taken with fluorescent microscope (×40). Due to the strong cytotoxic activities of the chalcones the number of the cells in objective area was much less than DMSO controls. (B) Cell cycle distribution of liver cancer cells. Huh7 and Mahlavu cells were treated for 72 h with IC50 concentrations of the compounds or DMSO control. SubG1 cell cycle arrest was observed upon treatment with the compounds (blue). (C) Investigation of PARP cleavage in Huh7 and Mahlavu cells treated with the selected chalcones for 24 h.
Then samples were stained with propidium iodide which binds to DNA and analyzed with MUSE® Cell Cycle Assay Kit (EMD Milipore).

Experiment [5] deals with pRb (Ser807/811) in Mahlavu cells. Kind of experiment: Western blot, phosphorylated Rb protein levels. The following applies: IC50 concentrations, 24 h. On the procedure:
as §4
(§8) In the literature, it was shown that the anti-cancer effect of chalcones on uterus leiomyoma cells was through an increase in p21 protein[35]. Thus we also examined the levels of p21 in our cells. Furthermore, p21 is also a downstream element of Akt pathway. […] Therefore, the effect on Rb protein, which is also a downstream element of p21, was investigated in the presence of the chalcones 1, 9 and 11.
as §5, with “Original Full length blots are given as Supplementary Information.” left out

Experiment [6] concerns pNFkB-p65 (Ser468) in Mahlavu cells. The experiment can be described thus: Western blot, phosphorylation of NFkB-p65. The note with it: IC50 concentrations, 24 h. The method, then: as §4
NFB is a transcription factor which is a fundamental component of inflammation pathway. This protein has also crucial roles in cell proliferation and apoptosis, thus cancer progression. […] Since the inflammation is one of the hallmarks of cancer, we also investigated the effect of our compounds on NFB protein. […] This form of NFB is the activated form which translocates into the nucleus to function as a transcription factor.
(§9) Poorly differentiated liver cancer cell line Mahlavu cells were cultured in 100 mm culture dish for 24 h. […] Anti-PARP antibody (Cell Signaling, 9532), pAkt (Ser473) antibody (Cell Signaling, 9271), Akt antibody (Cell Signaling, 9272), pNFkB-p65 (Ser468) antibody (Snat Cruz, sc101750), p21 antibody (Millipore, 05345), pRb (Ser807/811) antibody (Cell Signaling, 9308), Rb antibody (Santa Cruz, sc102), actin antibody (Sigma, A5441) and calnexin antibody (Sigma, C4731) were used as primary antibodies. Anti-rabbit (6154) and anti-mouse (0168) secondary antibodies were used. […]

The test system of experiment [7] is p21 in Mahlavu cells. Kind of experiment: Western blot, p21 protein levels. The following applies: IC50 concentrations, 24 h. On the procedure:
as §4, §8
as §9, with “used. ImageJ tool ([42]) used for protein band intensity comparison.” for “used.”
(In general: In western blotting, separated proteins are transferred to a membrane and probed.)

Experiment [8] relates to PARP cleavage in Huh7 and Mahlavu cells. Kind of experiment: Western blot, PARP cleavage (marker of apoptosis). The note with it: 24 h. The method, then: as §6
as §7, with “SubG1 cell cycle arrest was observed upon treatment with the compounds (blue). (C) Investigation of PARP cleavage in Huh7 and Mahlavu cells treated with the selected chalcones for 24 h.” left out

Turning to `COc1ccc(C(=O)/C=C/c2cccc([N+](=O)[O-])c2)cc1` [compound 1], the IC50 (in general, the point on the concentration scale where inhibition reaches its midpoint) is 6.2 µM in experiment [1] and under 2.5 µM in experiment [3]. Also, in experiment [2], the “levels of pAkt” value was “decrease in the levels of pAkt”. Further, in experiment [4], the cell cycle progression entry is “induced SubG1 cell cycle arrest”.

As to `O=C(/C=C/c1ccccc1)c1ccccc1` [compound 9], the IC50 in experiment [1] was determined as 7.3 µM; in experiment [3], 6.3 µM. For the same compound, in experiment [2], the “levels of pAkt” value is recorded as “decrease in the levels of pAkt”. In addition, in experiment [5], the “phosphorylated Rb protein levels” value is “decreased significantly”. Also, the “phosphorylation of NFB-p65 at Ser468” value in experiment [6] was “decreased significantly”. In addition, the p21 protein levels entry in experiment [7] is “increased significantly”. The cell cycle progression entry in experiment [4] is “induced SubG1 cell cycle arrest”. Further, the PARP cleavage entry in experiment [8] was “PARP cleavage was present significantly”.

Consider `O=C(/C=C/c1ccc(Cl)cc1)c1ccccc1` [compound 11], for which the IC50 in experiment [1] stood at 5.9 µM; in experiment [3], 5.3 µM. Moreover, the “levels of pAkt” value in experiment [2] was “decrease in the levels of pAkt”. Besides, in experiment [5], the “phosphorylated Rb protein levels” value was “decreased significantly”. In addition, the “phosphorylation of NFB-p65 at Ser468” value in experiment [6] is “decreased significantly”. The p21 protein levels entry in experiment [7] is on record as “increased significantly”. For the same compound, in experiment [4], the cell cycle progression entry was “induced SubG1 cell cycle arrest”. Also, the PARP cleavage result in experiment [8] is “PARP cleavage was present significantly”.
